In paper PMC3849007 (Journal of Experimental & Clinical Cancer Research : CR, 2013):
Structures can show the parent of a compound that is named as a salt. Values belong to the compound of their own block, whether it stands above or below them.

Experiments:
[1] = system: h-Tel quadruplex (Q) DNA, 5'-biotin-d[AG3(T2AG3)3] (DNA, G4) AGGGTTAGGGTTAGGGTTAGGG; experiment: surface plasmon resonance; details: 200 mM KCl; 10 mM HEPES, 3 mM EDTA, 0.01% P20, pH 7.4
[2] = system: h-Tel 5'-d[AGGG(TTAGGG)3]-3' (DNA, G4) AGGGTTAGGGTTAGGGTTAGGG; experiment: CD melting at 290 nm; details: 110 mM K+ (100 mM KCl, potassium phosphate); 10 mM potassium phosphate, pH 7.0; 4 μM DNA, 3.5 mol equiv. ligand; Tm 89 ± 3
[3] = system: duplex (D) DNA hairpin, 5'-biotin-CGA3T3C(CT)2GA3T3CG (DNA, hairpin) CGAAATTTCCTCTGAAATTTCG; experiment: surface plasmon resonance; details: 200 mM KCl; 10 mM HEPES, 3 mM EDTA, 0.01% P20, pH 7.4
[4] = target: T1, human recombinant β2 adrenergic receptor (Homo sapiens, UniProt P07550); experiment: β2-adrenergic receptor binding assay (CHO expressing cells)
T1 construct: expressed in transfected cells; host or cells: CHO
T1 sequence (P07550 whole entry): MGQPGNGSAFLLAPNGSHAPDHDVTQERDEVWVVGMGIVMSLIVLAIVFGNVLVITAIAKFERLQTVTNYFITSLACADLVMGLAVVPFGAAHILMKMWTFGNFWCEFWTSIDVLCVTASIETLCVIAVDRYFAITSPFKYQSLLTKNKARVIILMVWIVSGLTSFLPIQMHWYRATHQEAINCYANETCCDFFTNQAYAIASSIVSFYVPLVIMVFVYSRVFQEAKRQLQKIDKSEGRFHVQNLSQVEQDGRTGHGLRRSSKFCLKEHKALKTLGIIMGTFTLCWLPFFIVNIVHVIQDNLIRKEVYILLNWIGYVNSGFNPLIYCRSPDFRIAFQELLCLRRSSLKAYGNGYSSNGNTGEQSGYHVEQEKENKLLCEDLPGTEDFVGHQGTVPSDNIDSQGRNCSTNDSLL
Description: (§1) For hERG study, HEK293 cells were cultured (1–7 days) in DMEM/GlutaMax-1 + 10% FBS and were plated on collagen-coated dishes (about 2×10^4 cells/dish). The cell was held at -80 mV. A 50-millisecond pulse to -40 mV was delivered to measure the leaking currents, which were subtracted from the tail currents online. […] This paradigm was delivered once every 5 seconds to monitor the current amplitude. After the current amplitude stabilized, the test compound was delivered to the extracellular medium by a rapid solution changer perfusion system. During perfusion, the cell was repetitively stimulated with the protocol described above, and the current amplitude was continuously monitored. Data were acquired and analyzed by using pClamp (Axon Instruments), and Excel (Microsoft), and are reported as mean and individual values. The degree of inhibition (%) was obtained by measuring the tail current amplitude before and after drug superfusion (the difference current was normalized to control and multiplied by 100 to obtain the percent of inhibition). […] The concentration-response relationship of each compound was constructed from the percentage reductions of current amplitude by sequential concentrations. β2-adrenergic receptor CHO expressing cells were used for the receptor inhibition assay as described. The results are expressed as a percent of inhibition of control specific binding (100 - (measured specific binding/control specific binding) × 100)) obtained in the presence of the test compounds. The specific ligand binding to the receptors is defined as the difference between the total binding and the nonspecific binding determined in the presence of an excess of unlabelled ligand. All the in-vivo experiments were carried out at the Regina Elena Cancer Institute.
Inhibition of receptor was reported as inhibition of control specific binding (100 - (measured specific binding/control specific binding) × 100) obtained in the presence of the test compounds.

[5] = system: h-Tel (anti-parallel) quadruplex; experiment: CD thermal unfolding of h-Tel quadruplex; format: binding, human
Description: CD spectra were recorded on an Applied Photophysics Pi-Star-180 spectrophotometer (Applied Photophysics Ltd, Surrey, UK). The optical system was configured with a 75 W Xe lamp, circular light polarizer and end-mounted photomultiplier. The instrument had previously been calibrated with (D)-camphorsulfonic acid. Temperature was regulated using a Neslab RTE-300 circulating programmable water bath (Neslab Inc). CD spectra were recorded at 298 K in a 10 mm path length cell over a wavelength range of 215–345 nm in steps of either 1 0r 2 nm, with 3 nm entrance/exit slit widths: the number of counts was set to 10,000 with adaptive sampling set to 500,000. The spectra were corrected by subtracting the spectrum of the same buffer solution of 100 mM potassium chloride and 10 mM potassium phosphate at pH 7.0. Annealing and melting profiles were recorded using a thermoelectric temperature controller (Melcor) on 4 μM DNA samples with and without 3.5 mol.equiv. of ligands using 0.5 K temperature increments and a cooling or heating rate of 0.2 K/min over the temperature range 298-368 K.
This analysis was extended to examine the effects of ligand binding on thermal stability by measuring the unfolding curves at 290 nm of the complexes formed in K^+ solution, corresponding to the CD spectra shown in Figure 4a. Monitoring the thermal unfolding transition for h-Tel produces a sigmoidal unfolding curve with a transition mid-point Tm value of 72 ± 3°C (Figure 4c). All three ligands show significant effects in enhancing the stability of the quadruplex by shifting the Tm values to higher temperatures (∆Tm ~ 15-19°C compared to h-Tel without bound ligands) (Table 1).

[6] = system: BJ-hTERT fibroblasts; experiment: Proliferation assay, normal telomerised fibroblasts; format: cell-based, human; details: 0.5 μM, culture day 2 to 8
Description: (§2) BJ fibroblasts expressing hTERT (BJ-hTERT) or hTERT and SV40 early region (BJ-EHLT), were obtained as previously reported. Cells were grown in Dulbecco Modified Eagle Medium (D-MEM, Invitrogen Carlsbad, CA, USA) supplemented with 10% fetal calf serum, 2 mM L-glutamin and antibiotics.
(§3) 5 × 10^4 cells were seeded in 60-mm Petri plates (Nunc, MasciaBrunelli, Milano, Italy) and 24 h after plating, 0.5 μM of freshly dissolved compound was added to the culture medium. Cell counts (Coulter Counter, Kontron Instruments, Milano, Italy) and viability (trypan blue dye exclusion) were determined daily, from day 2 to day 8 of culture.

[7] = system: γH2AX in BJ-EHLT fibroblasts; experiment: Immunofluorescence for γH2AX (DNA damage response); format: cell-based, human; details: 0.5 μM, 24 hrs
Description: (§4) Cells were fixed in 2% formaldehyde and permeabilized in 0.25% Triton X100 in PBS for 5 min at room temperature. For immunolabeling, cells were incubated with primary antibody, then washed in PBS and incubated with the secondary antibodies. The following primary antibodies were used: pAb and mAb anti-TRF1 (Abcam Ltd.; Cambridge UK); mAb (Upstate, Lake Placid, NY) and pAb anti-γH2AX (Abcam). The following secondary antibody were used: TRITC conjugated Goat anti Rabbit, FITC conjugated Goat anti Mouse (Jackson ImmunoResearch Europe Ltd., Suffolk, UK). Fluorescence signals were recorded by using a Leica DMIRE2 microscope equipped with a Leica DFC 350FX camera and elaborated by a Leica FW4000 deconvolution software (Leica, Solms, Germany). This system permits to focus single planes inside the cell generating 3D high-resolution images. For quantitative analysis of γH2AX positivity, 200 cells on triplicate slices were scored. For TIF’s analysis, in each nucleus a single plane was analyzed and at least 50 nuclei per sample were scored.

[8] = system: Telomere dysfunction Induced Foci in BJ-EHLT fibroblasts; experiment: TIF analysis (γH2AX/TRF1 co-localization); format: cell-based, human; details: 24 hrs
Description: as §4

[9] = system: h-Tel 5'-d[AGGG(TTAGGG)3]-3' (DNA, G4) AGGGTTAGGGTTAGGGTTAGGG; experiment: CD spectroscopy, induced anti-parallel structure; details: no significant K+; 298 K; 3.5 molar equivalents of ligand; band at 290 nm emerges
[10] = system: NCI60 panel; experiment: NCI60 panel growth inhibition; format: cell-based, human
[11] = system: BJ-EHLT fibroblasts; experiment: Proliferation assay, transformed fibroblasts; format: cell-based, human; details: 0.5 μM, culture day 2 to 8
Description: as §2, §3

[12] = system: h-Tel quadruplex DNA 5′-d[AGGG(TTAGGG)3]-3′; experiment: Surface plasmon resonance, quadruplex DNA; details: for Surface plasmon resonance K, Quadruplex (Q) DNA: 10 mM HEPES, 200 mM KCl, 3 mM EDTA, 0.01% P20, pH 7.4, equilibrium binding constant
Description: Oligonucleotides 5′-biotin-d[AG3(T2AG3)3] quadruplex and 5′-biotin-CGA3T3C(CT)2GA3T3CG were purchased from Midland Certified Reagent Company (Midland, TX).
In the present work these measurements were repeated comparing ligand binding to the same h-Tel sequence but with a different duplex sequence 5′-d[CGA3T3C(CT)2GA3T3CG]-3′ as comparator.

[13] = system: telomere aberrations in BJ-EHLT fibroblasts; experiment: Telomere FISH on metaphase spreads; format: cell-based, human; details: 0.5 μM, 72 hrs
Description: For metaphase chromosome preparation cells were treated with demecolcine (Sigma, Milan, Italy) 0.1 mg/ml for 4 h and then harvested and washed in 75 mM KCl for 5 min at 37°C. After centrifugation cells were fixed in MeOH/acetic acid 3:1 overnight and then spread on slides. Hybridization with rhodamine-coupled PNA was performed as described. For each sample 20 metaphases per slice on triplicate were scored. Images of the metaphases were captured with a 100 × objective.

[14] = target: T2, hERG (Homo sapiens, UniProt Q12809); experiment: hERG tail current inhibition, patch clamp assay; format: cell-based; details: human, HEK293 cells (hERG study), 10 μM, HEK293 cells, read-out: hERG % inhib. (10 μM)
T2 construct: expressed in transfected cells; host or cells: HEK293
T2 sequence (Q12809 whole entry): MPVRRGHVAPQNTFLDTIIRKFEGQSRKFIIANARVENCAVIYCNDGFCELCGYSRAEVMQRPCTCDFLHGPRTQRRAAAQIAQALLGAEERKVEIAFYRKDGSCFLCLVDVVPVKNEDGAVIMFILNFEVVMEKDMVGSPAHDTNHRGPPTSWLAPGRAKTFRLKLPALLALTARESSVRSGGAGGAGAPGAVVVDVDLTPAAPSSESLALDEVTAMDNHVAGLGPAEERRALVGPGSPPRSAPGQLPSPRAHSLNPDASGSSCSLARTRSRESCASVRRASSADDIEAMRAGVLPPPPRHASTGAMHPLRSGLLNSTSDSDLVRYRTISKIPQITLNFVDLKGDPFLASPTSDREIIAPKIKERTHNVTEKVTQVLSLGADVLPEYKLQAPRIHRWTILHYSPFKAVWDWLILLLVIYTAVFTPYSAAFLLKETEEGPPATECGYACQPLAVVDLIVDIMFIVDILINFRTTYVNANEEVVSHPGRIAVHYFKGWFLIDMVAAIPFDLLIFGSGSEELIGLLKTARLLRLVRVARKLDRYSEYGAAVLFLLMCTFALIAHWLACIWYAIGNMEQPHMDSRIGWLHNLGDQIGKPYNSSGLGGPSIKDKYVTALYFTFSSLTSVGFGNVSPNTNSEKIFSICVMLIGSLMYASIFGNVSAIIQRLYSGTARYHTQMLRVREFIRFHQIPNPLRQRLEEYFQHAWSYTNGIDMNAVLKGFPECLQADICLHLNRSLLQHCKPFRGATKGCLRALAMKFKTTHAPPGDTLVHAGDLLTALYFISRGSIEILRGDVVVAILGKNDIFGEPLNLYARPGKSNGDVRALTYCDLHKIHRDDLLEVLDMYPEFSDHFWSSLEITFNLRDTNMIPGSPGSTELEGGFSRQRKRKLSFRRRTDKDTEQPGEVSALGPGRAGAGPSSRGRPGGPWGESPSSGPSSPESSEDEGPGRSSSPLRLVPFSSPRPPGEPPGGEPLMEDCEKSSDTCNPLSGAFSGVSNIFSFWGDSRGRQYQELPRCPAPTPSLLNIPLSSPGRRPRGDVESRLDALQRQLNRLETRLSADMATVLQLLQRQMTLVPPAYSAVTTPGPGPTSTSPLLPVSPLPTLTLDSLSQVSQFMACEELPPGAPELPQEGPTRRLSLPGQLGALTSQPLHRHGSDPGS
Description: as §1, with “Institute. All procedures involving animals and care were performed in compliance with our institutional animal care guidelines and with international directives (directive 2010/63/EU of the European parliament and of the council; Guide for the Care and Use of Laboratory Animals, United States National Research Council, 2011).” for “Institute.”

K [1]: 600000 M⁻¹
Structure (SMILES): CC[n+]1c2c3c(cc(C)cc3c3cc(F)ccc31)N(C)c1ccc(F)cc1-2

melting point: > 250 °C (dec.)
Structure (SMILES): CC[n+]1c2c3c(cc(C)cc3c3cc(F)ccc31)N(C)c1ccc(F)cc1-2 (as salt: sulfate) [Compound 8, 13-Ethyl-3,11-difluoro-6,8-dimethyl-8H-quino[4,3,2-kl]acridinium trifluoromethosulfate]

∆Tm [2]: 19 °C | K [3]: 400000 M⁻¹ | inhibition at 10 µM ([4]; 10 μM, inhibition of control specific binding, CHO cells, read-out: B2 adrenergic % inhib. (10 μM)): 24% | decay of β2-adrenergic receptor inhibition compared to 1 ([4]; comparing 1 to the compound): 75% | K [1]: 1.5e+07 M⁻¹ | binding [9]: yes
Structure (SMILES): CC(=O)Nc1ccc2c3cccc4c3c([n+](C)c2c1)-c1ccccc1N4C [Compound 2, 2-Acetylamino-8,13-dimethyl-8H-quino[4,3,2-kl]-acridinium iodide]
CD study thermal stability ∆Tm ([5]; compared to h-Tel without bound ligand (Tm 70 ± 3)): 19 °C | CD study thermal stability Tm ([5]; h-Tel 4 μM with 3.5 mol.equiv. ligand, K+ solution, unfolding at 290 nm): 89 ± 3 °C | inhibition of cell proliferation in normal telomerized fibroblasts [6]: did not induce inhibition of cell proliferation | percentage of cells positive for γH2AX [7]: quite similar to compound 1 | percentage of TIF-positive cells ([8]; cells with more than four γH2AX/TRF1 co-localizations): comparable levels with respect to 1 | number of TIFs per nucleus ([8]; mean): ca. eight | GI50 ([10]; Homo sapiens, NCI data, read-out: Mean GI50 value from the NCI60 panel): 12 µM | effect on cell proliferation in a panel of different histotype tumor cell lines ([10]; several human cancer cell lines): maintained an anti-proliferative effect | day of maximum effect on cell proliferation [11]: 6 days | Surface plasmon resonance K, Quadruplex (Q) DNA [12]: 1.5e+07 M⁻¹ | telomere aberrations (telomere doublets, sister telomere fusions) [13]: quantitatively similar to the lead compound

Structure (SMILES): CC[n+]1c2c3c(cc(C)cc3c3cc(F)ccc31)N(C)c1ccc(F)cc1-2 [Compound 8, 13-Ethyl-3,11-difluoro-6,8-dimethyl-8H-quino[4,3,2-kl]acridinium trifluoromethosulfate]
Surface plasmon resonance K, Quadruplex (Q) DNA [12]: 600000 M⁻¹ | fold reduction in on-target effect against h-Tel DNA sequence (SPR) relative to 1 ([12]; relative to compound 1): > 10 fold | inhibition at 10 µM [14]: 18%
